In publication PMC4947679, “Quantitative In Vitro and In Vivo Evaluation of Intestinal and Blood-Brain Barrier Transport Kinetics of the Plant N-Alkylamide Pellitorine” (BioMed Research International, 2016):
Each block holds one molecule with its values, some of them ahead of it.

Columns and labels:
[1] = Caco-2 cell permeability assay; format: in vitro ADME, human; settings: human, Caco-2; positive (high permeability) control, 20 μM
Procedure: The Caco-2 cell line originated from a human colorectal carcinoma and was maintained in Dulbecco's modified Eagle's medium (DMEM) (95% humidity, 37°C, 5% CO2), supplemented with 10% (V/V) fetal bovine serum, 100 U/mL penicillin and 100 μg/mL streptomycin, 2 mM L-glutamine, and 1% nonessential amino acids (all from Invitrogen/GIBCO, Ghent, Belgium).
The Caco-2 cell intestinal model was used to investigate the gut mucosa permeation of pellitorine. On each Transwell (Corning Costar, New York, USA) membrane insert filter (0.4 μm pore size, 12 mm filter diameter), the cells were seeded at a density of 2.6 · 10^5 cells/cm^2 cells and cultivated in the described supplemented DMEM. Every second day, the medium was changed. During a period of 21–29 days, the cells were grown and differentiated until monolayers were formed. The integrity of the monolayers was checked via the measurement of transepithelial electrical resistance (TEER) of the monolayers with a Millicell-ERS system (Millipore Corp., Bedford, MA, USA) before and after the transport experiments. The experiments were performed in duplicate for each dose solution. Transport experiments were carried out according to Hubatsch et al. in two directions: from the apical-to-basolateral (ab) direction and from the basolateral-to-apical (ba) direction in Hanks' Balanced Salt solution. Two dose solutions of pellitorine (in Anacyclus pyrethrum extract) of 1 μg/mL in 0.5% EtOH (further indicated as DS1) and of 56 μg/mL in 0.5% of a mixture of vitamin E-TPGS (33.3%), EtOH (11.1%), PEG 400 (33.3%), and PG (22.2%) (further indicated as DS2) dissolved in HBSS were tested.
Final apical volumes of 0.4 mL and basolateral volumes of 1.2 mL were used for 12 mm filter supports during the transport experiment. After 15, 30, 60, 90, and 120 min, samples were taken from the receiver compartment (basolateral to apical transport: 100 μL, apical-to-basolateral transport: 300 μL) and immediately replaced by fresh HBSS. […] Pellitorine was quantified using a ultraperformance liquid chromatography-tandem mass spectrometry (UPLC-MS^2) method as described below.
The apparent permeability coefficient (P app in cm/s) of pellitorine in DS2 was calculated using a sink condition equation, while P app of pellitorine in DS1 was calculated using a nonsink equation. From Fick's first law, J = −D × [dC(x)]/dx (J is the flux or transfer rate along the donor-to-receptor side, D is the diffusion coefficient, x is the distance from the donor compartment, and C(x) is the concentration in the barrier at the coordinate x in the barrier), the following differential equation is derived: dM r(t)/dt = P app × A × [C d(t) − C r(t)], in which P app is the apparent permeability coefficient (a product of distribution coefficient with diffusion coefficient divided by the barrier thickness), M r is the amount of substance in the receiver chamber, A is the cross-sectional area of the barrier, C d is the donor concentration, and C r is the receiver concentration. This differential equation can be solved to calculate P app using different initial conditions depending on sink or nonsink conditions. In case of sink conditions, the following equation was obtained from the amount of compound transported per time dM r(t)/dt with the receiver concentration set to zero [18, 20]:(1) Mrt/Cd,0=Papp×A×t+c, where P app is the apparent permeability coefficient (cm/s), A is the surface area of the filter (1.12 cm^2), C d,0 is the initial concentration in the donor chamber (μg/mL), t is the time (s), and c is a constant term which vanishes, since M r is initially zero at t = 0.
The donor concentration at each time point was calculated by taking into account the amount of compound which already permeated through the cell monolayer during that time interval. In this way, the reduction in donor concentration after every sampling was also taken into account.

[2] = Blood-to-brain transport, multiple time regression (MTR) analysis in mice; settings: mice, injection into jugular vein, MTR
Procedure: Seven-to-ten-week-old female, Institute for Cancer Research, Caesarean Derived-1 (ICR-CD-1) mice (Harlan Laboratories, Venray, Netherlands) weighing 29–32 g were used for the BBB transport experiments. The experiments were performed according to the Ethical Committee principles of laboratory animal welfare as approved by Ghent University (Faculty of Veterinary Medicine, number EC2014/128).
An in vivo multiple time regression (MTR) analysis was performed in order to determine whether pellitorine could enter the brain. A dose solution of 1.8 mg/mL pure pellitorine dissolved in 6.9% EtOH, 2.5% dimethylacetamide, and 0.5% tween 80 (all w/w) diluted in lactated Ringer's solution containing 1% BSA was prepared. After anesthetizing the mice intraperitoneally with a 40% (w/V) urethane solution (3 g/kg), the jugular internalis vein and carotid artery were isolated and 20 μL of the pellitorine dose solution was injected into the jugular vein. After 1, 3, 5, 10, 12.5, and 15 min after injection (with start and end in duplicate), blood was collected from the carotid artery. Immediately thereafter, the mice were decapitated and the brains were isolated. […] The serum concentrations of pellitorine were plotted against the time (expressed in min). The curve was fitted using a first-order kinetic, two-compartment model: C(t) = C 1 × e ^−α×t + C 2 × e ^−β×t, in which C is the concentration of pellitorine in serum at time t, α and β are hybrid constants, dependent on the rate constants k e (elimination rate constant), k 1,2 (rate constant between central and peripheral tissue compartment), k 2,1 (rate constant between peripheral tissue and central compartment), C 1 is the concentration obtained after extrapolation of the distribution phase α to the y-axis, and C 2 is the concentration obtained after extrapolation of the elimination phase β to the y-axis. The ratio of the pellitorine brain and serum concentration (μL/g) was plotted versus the exposure time (θ), which is a derived time variable of the Gjedde-Patlak plot, to determine the BBB influx kinetics of pellitorine.
The exposure time is computed as θ = ∫0 ^T((C s(t) · dt)/C s(T)) and is defined as the integral of the concentration of pellitorine in serum from start (t = 0 min) to time T, divided by the concentration of pellitorine in serum at time T. The integral of the concentration of pellitorine in serum from zero to time T is the area under the curve until time T.
The brain uptake of pellitorine was fitted using a biphasic model, as elaborated by Wong et al.: (4) CbrainT/CsTK·θ+Vg·1−e^−θ·K1−K/Vg+V0≅K=0Vg·1−e^−θ·K1/Vg+V0 in which C brain(T) is the concentration of pellitorine in the brain at time T (ng/g), C s(T) the concentration of pellitorine in serum at time T (ng/μL), K the net clearance (μL/(g·min)), V g the tissue brain distribution volume (μL/g), K 1 the unidirectional clearance from pellitorine from blood to brain (i.e., the unidirectional brain transfer coefficient, also referred to as influx rate) (μL/(g·min)), and V 0 the vascular brain distribution volume (μL/g).

[3] = design: method as in PMID 19399718; settings: oral gavage in rats; cited from earlier work

- Papp A→B at 120 min, 20 μM [1]: 19.1 ×10⁻⁶ cm/s
Molecule: CC(C)NCC(O)COc1cccc2ccccc12 (stereo not drawn) [propranolol, reference compound]

Molecule: Dermorphin [reference compound]
- unidirectional influx rate K 1 [2]: 0.26 µL/g/min

Molecule: dodeca-2E,4E,8E,10E/Z-tetraenoic acid isobutylamides
- elimination half-life [3]: 1.20 h
